The numbers were not newly measured in patent US7273870B2, “Stabilized difloxacin injectable solution” (Wyeth, priority 2002, dated 2007), which cites them from elsewhere.

As for `CN1CCN(c2cc3c(cc2F)c(=O)c(C(=O)O)cn3-c2ccc(F)cc2)CC1` [Difloxacin, 6-fluoro-1-(4-fluorophenyl)-1,4-dihydro-7-(4-methyl-1-piperadinyl) 4-oxo-3-quinolinecarboxylic acid], the Solubility in water result is given as “not highly soluble in water”.
